The source of these data is the Kinase Knowledgebase extract (Sharma et al. 2016).

The target of the experiment is EGFR (human) (UniProt P00533). The following applies: a431.
Sequence of EGFR (human) (P00533 whole entry, looked up): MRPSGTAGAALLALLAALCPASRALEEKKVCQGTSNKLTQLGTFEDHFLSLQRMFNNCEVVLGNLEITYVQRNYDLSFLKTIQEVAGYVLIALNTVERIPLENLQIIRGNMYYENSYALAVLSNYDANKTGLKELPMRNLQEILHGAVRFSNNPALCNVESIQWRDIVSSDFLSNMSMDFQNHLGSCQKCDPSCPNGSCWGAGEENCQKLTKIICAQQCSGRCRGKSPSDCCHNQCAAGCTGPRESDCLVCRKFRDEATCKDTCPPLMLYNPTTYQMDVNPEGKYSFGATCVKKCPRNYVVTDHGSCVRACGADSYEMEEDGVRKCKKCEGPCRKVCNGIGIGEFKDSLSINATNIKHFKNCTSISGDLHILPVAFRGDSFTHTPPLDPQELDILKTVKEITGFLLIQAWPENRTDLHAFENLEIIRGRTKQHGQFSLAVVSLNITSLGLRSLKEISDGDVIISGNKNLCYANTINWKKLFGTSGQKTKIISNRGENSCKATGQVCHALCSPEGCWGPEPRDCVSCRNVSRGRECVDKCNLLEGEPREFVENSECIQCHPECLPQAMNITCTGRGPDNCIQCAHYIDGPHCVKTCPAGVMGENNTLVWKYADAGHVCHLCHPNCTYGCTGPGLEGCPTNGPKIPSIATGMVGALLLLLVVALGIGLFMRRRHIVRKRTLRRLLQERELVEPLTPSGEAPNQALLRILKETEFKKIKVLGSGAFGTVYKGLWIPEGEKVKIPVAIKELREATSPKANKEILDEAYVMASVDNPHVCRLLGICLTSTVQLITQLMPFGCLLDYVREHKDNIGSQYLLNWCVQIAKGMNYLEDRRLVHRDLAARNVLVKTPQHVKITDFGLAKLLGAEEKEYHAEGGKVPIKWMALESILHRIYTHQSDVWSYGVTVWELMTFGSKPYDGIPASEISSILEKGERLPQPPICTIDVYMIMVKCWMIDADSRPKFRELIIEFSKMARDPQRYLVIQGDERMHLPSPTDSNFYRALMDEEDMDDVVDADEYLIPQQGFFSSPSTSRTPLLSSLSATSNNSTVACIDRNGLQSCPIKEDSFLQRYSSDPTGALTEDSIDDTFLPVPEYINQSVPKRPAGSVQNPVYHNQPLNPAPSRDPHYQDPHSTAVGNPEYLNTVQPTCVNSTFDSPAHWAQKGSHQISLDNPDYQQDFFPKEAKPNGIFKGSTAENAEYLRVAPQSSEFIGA
On to `C/C(=C/c1coc2nc(N)nc(N)c12)c1ccc(Cl)cc1.C/C(=C\c1coc2nc(N)nc(N)c12)c1ccc(Cl)cc1`, for which the IC50 (in general, the midpoint of a concentration-inhibition curve) was above 50 µM.
As to `COc1ccc(OC)c(/C(C)=C/c2coc3nc(N)nc(N)c23)c1`, the IC50 was above 50 µM.
The compound `COc1ccccc1/C(C)=C/c1coc2nc(N)nc(N)c12` yielded an IC50 above 50 µM.
Regarding `C/C(=C/c1coc2nc(N)nc(N)c12)c1ccc2ccccc2c1.C/C(=C\c1coc2nc(N)nc(N)c12)c1ccc2ccccc2c1`, the IC50 was above 50 µM.
`C/C(=C\c1coc2nc(N)nc(N)c12)c1ccc(Cl)c(Cl)c1Cl` yielded an IC50 above 50 µM.
`C/C(=C\c1coc2nc(N)nc(N)c12)c1ccc2c(c1)Cc1ccccc1-2` returned an IC50 above 50 µM.
The compound `C/C(=C/c1coc2nc(N)nc(N)c12)c1ccc(Cl)c(Cl)c1Cl.C/C(=C\c1coc2nc(N)nc(N)c12)c1ccc(Cl)c(Cl)c1Cl` yielded an IC50 above 50 µM.
To `C/C(=C/c1coc2nc(N)nc(N)c12)c1ccc(Cl)c(Cl)c1.C/C(=C\c1coc2nc(N)nc(N)c12)c1ccc(Cl)c(Cl)c1` belongs above 50 µM.
To `C/C(=C/c1coc2nc(N)nc(N)c12)c1cc(Cl)ccc1Cl` belongs above 50 µM; to `C/C(=C\c1coc2nc(N)nc(N)c12)c1cccc(Cl)c1`, above 50 µM; to `COc1cc(/C(C)=C/c2coc3nc(N)nc(N)c23)cc(OC)c1OC.COc1cc(/C(C)=C\c2coc3nc(N)nc(N)c23)cc(OC)c1OC`, above 50 µM.
The compound `C/C(=C/c1coc2nc(N)nc(N)c12)c1ccc(-c2ccccc2)cc1.C/C(=C\c1coc2nc(N)nc(N)c12)c1ccc(-c2ccccc2)cc1` had an IC50 above 50 µM.
The same measure for `C/C(=C\c1coc2nc(N)nc(N)c12)c1ccc(Cl)cc1Cl`: above 50 µM.
With `C/C(=C\c1coc2nc(N)nc(N)c12)c1cc(Cl)ccc1Cl`, the IC50 was above 50 µM.
